Reference: article PMC10541190 (The Journal of Clinical Investigation, 2023)
Where “and” joins values, the source holds several entries; their conditions need not be identical. Equal values may be shown once. Read-outs that look alike come from different tables or passages of the source.

Columns and labels:
[1] = test system: MAP2K5; settings: cited from earlier work
[2] = test system: MARV (Ci67 strain); assay: organism not typed; assay type: cell-based; settings: Huh-7, read-out: EC50, MARV replication
[3] = test system: brain microvascular endothelial cell monolayer
[4] = test system: SARS-CoV-2; assay type: cell-based
[5] = test system: EBOV (Kikwit isolate); assay: microbe, parasite or virus in culture; assay type: cell-based; settings: Zaire ebolavirus, Huh-7, read-out: EC50, EBOV replication
[6] = target: ErbB4 (Homo sapiens, UniProt Q15303); assay: biochemical; settings: read-out: ErbB4 activity (%)
Sequence of ErbB4 (Homo sapiens, UniProt Q15303) (Q15303 26-1308): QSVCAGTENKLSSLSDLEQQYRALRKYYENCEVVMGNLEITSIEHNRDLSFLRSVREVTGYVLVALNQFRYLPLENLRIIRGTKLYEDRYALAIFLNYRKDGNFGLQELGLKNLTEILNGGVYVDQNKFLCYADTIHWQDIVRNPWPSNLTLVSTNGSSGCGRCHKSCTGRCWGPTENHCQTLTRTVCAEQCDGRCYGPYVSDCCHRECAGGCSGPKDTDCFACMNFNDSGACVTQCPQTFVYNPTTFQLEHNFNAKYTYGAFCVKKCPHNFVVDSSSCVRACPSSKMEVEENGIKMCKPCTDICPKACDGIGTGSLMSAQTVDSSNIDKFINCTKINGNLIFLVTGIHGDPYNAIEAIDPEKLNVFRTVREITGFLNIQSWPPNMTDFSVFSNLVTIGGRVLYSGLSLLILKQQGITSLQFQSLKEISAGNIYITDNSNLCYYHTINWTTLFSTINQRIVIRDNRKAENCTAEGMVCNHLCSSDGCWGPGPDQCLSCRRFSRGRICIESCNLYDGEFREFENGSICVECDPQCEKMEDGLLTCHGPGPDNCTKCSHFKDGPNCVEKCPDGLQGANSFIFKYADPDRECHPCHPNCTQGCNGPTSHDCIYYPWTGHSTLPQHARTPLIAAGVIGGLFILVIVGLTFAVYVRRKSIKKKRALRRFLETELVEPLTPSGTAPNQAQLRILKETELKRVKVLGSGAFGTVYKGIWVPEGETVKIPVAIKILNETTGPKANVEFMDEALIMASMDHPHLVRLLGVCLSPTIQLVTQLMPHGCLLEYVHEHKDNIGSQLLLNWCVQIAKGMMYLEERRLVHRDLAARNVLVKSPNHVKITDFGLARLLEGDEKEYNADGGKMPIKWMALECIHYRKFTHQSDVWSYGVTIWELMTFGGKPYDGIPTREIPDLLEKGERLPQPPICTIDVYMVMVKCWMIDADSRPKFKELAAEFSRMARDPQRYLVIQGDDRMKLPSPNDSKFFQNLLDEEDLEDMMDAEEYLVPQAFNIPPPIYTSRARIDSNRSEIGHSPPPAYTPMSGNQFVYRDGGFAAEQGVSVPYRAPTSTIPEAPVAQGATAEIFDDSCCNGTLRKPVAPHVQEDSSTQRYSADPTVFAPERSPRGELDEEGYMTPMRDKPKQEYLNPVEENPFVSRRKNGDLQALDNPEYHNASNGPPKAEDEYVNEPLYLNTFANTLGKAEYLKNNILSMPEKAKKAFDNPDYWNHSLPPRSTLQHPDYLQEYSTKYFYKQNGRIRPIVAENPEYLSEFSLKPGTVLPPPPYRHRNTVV

[7] = test system: Huh7 cells; settings: human
[8] = in vitro; settings: African green monkey
[9] = test system: SARS-CoV-2 (Belgium-GHB-03021); assay type: cell-based
[10] = test system: DENV2; assay: microbe, parasite or virus in culture; assay type: cell-based; settings: Dengue virus, DENV2, Huh-7, read-out: EC50, DENV2 replication
[11] = test system: Vero cells; settings: African green monkey
[12] = test system: rVSV-SARS-CoV-2-S; assay type: cell-based
[13] = test system: VEEV (TC-83); assay type: cell-based
[14] = test system: AKT, ERK, and p38 MAPK; assay type: cell-based, human
[15] = test system: SARS-CoV-2 (USA-WA1/2020); assay type: cell-based
[16] = mouse, in vivo
[17] = test system: STK10; settings: cited from earlier work
[18] = test system: DENV2; assay type: cell-based
[19] = test system: RIPK2; settings: cited from earlier work
[20] = test system: MPOXV 2003 and MPOXV 2022; assay: microbe, parasite or virus in culture; assay type: cell-based; settings: Monkeypox virus, A549, read-out: EC50, monkeypox replication
[21] = test system: SLK; settings: cited from earlier work
[22] = test system: ErbB4; assay type: cell-based
[23] = test system: TNF-α, IL-1β, IL-6, MCP-1; assay type: cell-based, human
[24] = test system: ACE2; assay type: cell-based, human
[25] = test system: VEEV (TrD); assay type: cell-based
[26] = test system: SARS-CoV-2 (USA-WA1/2020); assay: microbe, parasite or virus in culture; assay type: cell-based; settings: Severe acute respiratory syndrome coronavirus 2, read-out: EC50, viral replication by plaque assay
[27] = target: ErbB2 (Homo sapiens, UniProt P04626); assay type: cell-based
Sequence of ErbB2 (P04626 23-1255): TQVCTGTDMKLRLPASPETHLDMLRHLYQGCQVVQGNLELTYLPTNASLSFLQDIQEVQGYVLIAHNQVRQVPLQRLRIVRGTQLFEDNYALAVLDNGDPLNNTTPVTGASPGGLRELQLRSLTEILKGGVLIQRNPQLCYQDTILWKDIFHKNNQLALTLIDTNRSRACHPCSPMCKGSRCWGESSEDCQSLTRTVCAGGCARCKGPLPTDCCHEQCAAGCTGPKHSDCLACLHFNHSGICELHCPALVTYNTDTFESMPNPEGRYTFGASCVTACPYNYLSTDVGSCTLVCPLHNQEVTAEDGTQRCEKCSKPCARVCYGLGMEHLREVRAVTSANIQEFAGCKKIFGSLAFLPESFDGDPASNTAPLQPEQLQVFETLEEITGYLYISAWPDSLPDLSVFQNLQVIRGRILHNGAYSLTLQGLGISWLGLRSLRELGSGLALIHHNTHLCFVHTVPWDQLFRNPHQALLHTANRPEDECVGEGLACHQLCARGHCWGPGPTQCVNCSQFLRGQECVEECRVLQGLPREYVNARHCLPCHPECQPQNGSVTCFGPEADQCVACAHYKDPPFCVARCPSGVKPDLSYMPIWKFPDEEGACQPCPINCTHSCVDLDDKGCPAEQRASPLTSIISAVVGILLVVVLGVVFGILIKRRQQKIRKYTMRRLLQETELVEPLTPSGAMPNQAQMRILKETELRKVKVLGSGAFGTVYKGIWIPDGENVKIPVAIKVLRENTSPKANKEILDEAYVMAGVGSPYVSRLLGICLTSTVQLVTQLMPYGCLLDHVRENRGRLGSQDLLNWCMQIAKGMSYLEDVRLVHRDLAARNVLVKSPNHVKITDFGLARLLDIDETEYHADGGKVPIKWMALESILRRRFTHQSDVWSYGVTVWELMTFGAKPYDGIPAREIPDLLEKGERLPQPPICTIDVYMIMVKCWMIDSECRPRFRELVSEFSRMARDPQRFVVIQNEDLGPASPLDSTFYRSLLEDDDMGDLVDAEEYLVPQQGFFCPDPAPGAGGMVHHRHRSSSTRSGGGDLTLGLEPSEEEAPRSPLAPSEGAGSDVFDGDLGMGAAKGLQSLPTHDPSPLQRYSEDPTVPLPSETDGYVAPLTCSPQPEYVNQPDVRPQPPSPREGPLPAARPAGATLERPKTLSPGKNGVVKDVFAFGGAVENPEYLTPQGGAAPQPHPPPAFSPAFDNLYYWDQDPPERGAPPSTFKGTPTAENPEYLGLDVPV

[28] = human, in vivo; cited from earlier work
[29] = test system: VEEV (TC-83); settings: mouse, in vivo
[30] = test system: Calu-3 cells; settings: human, 1.25 µM
[31] = test system: A549 cells; settings: human
[32] = test system: rVSV-SARS-CoV-2-S; assay: microbe, parasite or virus in culture; assay type: cell-based
[33] = target: ErbB2 (HER2) (Homo sapiens, UniProt P04626); assay: biochemical; settings: read-out: ErbB2 activity (%)
Sequence of ErbB2 (HER2) (P04626 23-1255): as above

[34] = test system: claudin-7 tight junctions; assay type: cell-based, human
[35] = test system: VEEV (TrD); assay: microbe, parasite or virus in culture; assay type: cell-based; settings: Venezuelan equine encephalitis virus, U-87 MG, read-out: EC50, VEEV (TrD) infection
[36] = test system: SARS-CoV-2 (USA-WA1/2020); assay: microbe, parasite or virus in culture; assay type: cell-based; settings: Severe acute respiratory syndrome coronavirus 2, read-out: EC50, nucleocapsid transcript expression by RT-qPCR
[37] = test system: RAF1; settings: cited from earlier work
[38] = test system: SARS-CoV-2 (USA-WA1/2020); assay: microbe, parasite or virus in culture; assay type: cell-based; settings: Severe acute respiratory syndrome coronavirus 2, Calu-3, read-out: EC50, SARS-CoV-2 infection

## CS(=O)(=O)CCNCc1ccc(-c2ccc3ncnc(Nc4ccc(OCc5cccc(F)c5)c(Cl)c4)c3c2)o1 [Lapatinib]
[1]
  Other targets: MAP2K5 (% of control): RAF1 (0%), STK10 (1.4%), RIPK2 (6.1%), MAP2K5 (12%), SLK (18%)
[2]
  EC50: 2000 nM
[3]
  barrier integrity (FITC-dextran permeability): maintained barrier integrity
[4]
  mean Manders' coefficient, colocalization of nucleocapsid and Rab7: 0.33
  number of nucleocapsid puncta per cell: significantly reduced
[5]
  EC50: 2500 nM
[6]
  activity at 0.001 µM: 104%
  activity at 0.003 µM: 93.7%
  activity at 0.009 µM: 68.4%
  activity at 0.247 µM: 17.5%
  activity at 2.222 µM: 6.13%
  activity at 6.667 µM: 3.13%
  activity at 20 µM: 2.93%
  activity at […]: 31.2% and 54.5% and 8.67%
[7]; 1.111 µM
  Huh7 cell viability (%): 102.98%
[7]; 10 µM
  Huh7 cell viability (%): 86.28%
[8]
  CC50: > 20000 nM
[8]; Cell viability (%)
  viability at 6.67 µM: 86.8%
  viability at 20 µM: 64%
[8]; Vero cell viability (%)
  viability at 20 µM: 85%
[9]
  rescue of Vero-eGFP cells from SARS-CoV-2-induced lethality, dose response: dose-dependent rescue
[10]
  EC50: 2000 nM
[11]
  CC50: > 20000 nM
[12]
  effect on rVSV-SARS-CoV-2-S infection when added upon or after virus binding: comparable effects
[13]
  replication of TC-83: dose-dependently inhibited replication
[14]
  SARS-CoV-2-induced activation of AKT and ERK (1.5 and 24 hpi) and p38 MAPK (24 hpi): dramatically inhibited
[15]
  SARS-CoV-2 nucleocapsid staining (confocal IF): near-complete disappearance
[16]
  tolerability: good tolerability
[17]
  Other targets: STK10 (% of control): RAF1 (0%), STK10 (1.4%), RIPK2 (6.1%), MAP2K5 (12%), SLK (18%)
[18]
  replication of DENV2: dose-dependently inhibited replication
[19]
  Other targets: RIPK2 (% of control): RAF1 (0%), STK10 (1.4%), RIPK2 (6.1%), MAP2K5 (12%), SLK (18%)
[20]
  EC50: 6200 to 7600 nM
[21]
  Other targets: SLK (% of control): RAF1 (0%), STK10 (1.4%), RIPK2 (6.1%), MAP2K5 (12%), SLK (18%)
[22]
  antiviral effect on VEEV (TC-83) upon ectopic expression of WT ErbB4: completely or partially reversed
[23]
  IL-6 concentration in ALOs' supernatants: 6.30 pg/mL and 5.01 pg/mL and 5.83 pg/mL and 5.58 pg/mL and 5.85 pg/mL and 5.34 pg/mL and 4.40 pg/mL and 3.70 pg/mL
  MCP-1 concentration in ALOs' supernatants: 39.85 pg/mL and 40.23 pg/mL and 32.64 pg/mL and 29.59 pg/mL and 33.59 pg/mL and 31.32 pg/mL and 47.61 pg/mL and 36.68 pg/mL
  concentration achieving cytokine levels at or lower than in uninfected monolayers: 0.5 µM
  expression level of MCP-1: increased
  expression level of TNF-α, IL-1β and IL-6: dose-dependently reduced
[24]
  cell surface level of ACE2 in infected cells: reversed the effect of SARS-CoV-2 infection
[25]
  VEEV (TrD) replication in vascular and brain sides of the gNVU: suppressed VEEV (TrD) replication
[26]
  EC50: 400 nM
[27]
  increase in cell surface level of ErbB2: more than 2 fold
[28]
  estimated incidence of pneumonitis, interstitial lung disease or lung fibrosis: 0.2%
[29]
  mice protected: 60%
  mice protected by day 10: 80%
  mice protected by day 14: 40%
  toxicity of the dose in the VEEV model: nontoxic
[30]
  Calu-3 cell viability (%): 85.68%
[31]
  A549 viability (%): 103.13%
[32]; Severe acute respiratory syndrome coronavirus 2, Calu-3, read-out: EC50, rVSV-SARS-CoV-2-S infection
  EC50: 2600 to 3200 nM
[32]; read-out: EC50, rVSV-SARS-CoV-2-S infection
  EC50: 2600 nM
[33]
  activity at 0.001 µM: 91.6%
  activity at 0.003 µM: 84.5%
  activity at 0.009 µM: 64%
  activity at 0.247 µM: 14%
  activity at 2.222 µM: 3.4%
  activity at 6.667 µM: 2.28%
  activity at 20 µM: 2%
  activity at […]: 27.2% and 45.3% and 6.63%
[34]
  claudin-7 morphology and alveolar-like architecture: intact claudin-7 morphology
[35]
  EC50: 900 nM
[36]
  EC50: < 200 nM
[37]
  Other targets: RAF1 (% of control): RAF1 (0%), STK10 (1.4%), RIPK2 (6.1%), MAP2K5 (12%), SLK (18%)
[38]
  EC50: 700 nM
